Laboratory results taken from patent US10448639B2, “Fungicidal pyrazoles” (FMC CORPORATION, priority 2009, dated 2019).
Marks after values point to notes of the source that are not given here.

Assays:
Botrytis cinerea = assay: Test B: tomato Botrytis, preventive spray on tomato seedlings, visual disease rating
[1] = test system: Puccinia recondita f. sp. tritici; assay: Test H: wheat leaf rust, curative spray on inoculated wheat seedlings, visual disease rating
Alternaria solani = assay: Test C: tomato early blight, preventive spray on tomato seedlings, visual disease rating
[2] = test system: Erysiphe graminis f sp. tritici; assay: Test J: wheat powdery mildew, preventive spray on wheat seedlings, visual disease rating
Septoria nodorum = assay: Test F: Septoria glume blotch, preventive spray on wheat seedlings, visual disease rating
Septoria tritici = assay: Test G: wheat leaf blotch, preventive spray on wheat seedlings, visual disease rating
[3] = test system: Puccinia recondita f. sp. tritici; assay: Test I: wheat leaf rust, preventive spray on wheat seedlings, visual disease rating
[4] = tomato Botrytis, 100 = 100% disease control, 0 = no control relative to controls
[5] = wheat leaf rust, curative, 100 = 100% disease control, 0 = no control relative to controls
[6] = tomato early blight, 100 = 100% disease control, 0 = no control relative to controls
[7] = wheat powdery mildew, 100 = 100% disease control, 0 = no control relative to controls
[8] = Septoria glume blotch, 100 = 100% disease control, 0 = no control relative to controls
[9] = wheat leaf blotch, 100 = 100% disease control, 0 = no control relative to controls
[10] = wheat leaf rust, preventive, 100 = 100% disease control, 0 = no control relative to controls
[11] = tomato Botrytis, preventive spray, 100 = 100% disease control, 0 = no control
[12] = wheat leaf rust, curative spray, 100 = 100% disease control, 0 = no control
[13] = tomato early blight, preventive spray, 100 = 100% disease control, 0 = no control
[14] = wheat powdery mildew, preventive spray, 100 = 100% disease control, 0 = no control
[15] = Septoria glume blotch on wheat, preventive spray, 100 = 100% disease control, 0 = no control
[16] = wheat leaf blotch, preventive spray, 100 = 100% disease control, 0 = no control
[17] = wheat leaf rust, preventive spray, 100 = 100% disease control, 0 = no control

Cc1nn(C)c(Oc2c(F)cc(C#N)cc2F)c1-c1ccccc1C(F)(F)F [compound 306]
Test B disease control rating (Botrytis cinerea; tomato Botrytis, 100 = 100% disease control, 0 = no disease control relative to controls): 7%
Test H disease control rating ([1]; wheat leaf rust, sprayed after inoculation, 100 = 100% disease control, 0 = no disease control relative to controls): 0%
Test C disease control rating (Alternaria solani; tomato early blight, 100 = 100% disease control, 0 = no disease control relative to controls): 0%
Test J disease control rating ([2]; wheat powdery mildew, sprayed the day before inoculation, 100 = 100% disease control, 0 = no disease control relative to controls): 64%
Test F disease control rating (Septoria nodorum; Septoria glume blotch on wheat, 100 = 100% disease control, 0 = no disease control relative to controls): 0%
Test G disease control rating (Septoria tritici; wheat leaf blotch, sprayed the day before inoculation, 100 = 100% disease control, 0 = no disease control relative to controls): 93%
Test I disease control rating ([3]; wheat leaf rust, sprayed the day before inoculation, 100 = 100% disease control, 0 = no disease control relative to controls): 28%

CCN(c1c(F)cc(OC)cc1F)c1c(-c2ccc(F)cc2Cl)c(C)nn1C [compound 158]
Test B rating (% disease control) (Botrytis cinerea; [4]): 100%
Test H rating (% disease control) [1, 5]: 18%
Test C rating (% disease control) (Alternaria solani; [6]): 0%
Test J rating (% disease control) [2, 7]: 98%
Test F rating (% disease control) (Septoria nodorum; [8]): 0%
Test G rating (% disease control) (Septoria tritici; [9]): 99%
Test I rating (% disease control) [3, 10]: 99%

COc1ccc(F)c(-c2c(C)nn(C)c2Oc2c(F)cc(C#N)cc2F)c1 [compound 278]
Test B rating (% disease control) (Botrytis cinerea; [4]): 99%
Test H rating (% disease control) [1, 5]: 0%
Test C rating (% disease control) (Alternaria solani; [6]): 0%
Test J rating (% disease control) [2, 7]: 100%
Test F rating (% disease control) (Septoria nodorum; [8]): 0%
Test G rating (% disease control) (Septoria tritici; [9]): 99%
Test I rating (% disease control) [3, 10]: 82%

COc1cc(Oc2c(-c3c(F)cc(F)cc3F)c(C)nn2C)ccc1C [compound 217]
Test B rating (% disease control) (Botrytis cinerea; [4]): 75%
Test H rating (% disease control) [1, 5]: 40%
Test C rating (% disease control) (Alternaria solani; [6]): 0%
Test J rating (% disease control) [2, 7]: 99%
Test F rating (% disease control) (Septoria nodorum; [8]): 0%
Test G rating (% disease control) (Septoria tritici; [9]): 83%
Test I rating (% disease control) [3, 10]: 79%

CCOc1cc(F)c(-c2c(C)nn(C)c2Nc2ccc(F)cc2F)c(F)c1 [compound 141]
Test B rating (% disease control) (Botrytis cinerea; [11]): 99%
Test H rating (% disease control) [1, 12]: 0%
Test C rating (% disease control) (Alternaria solani; [13]): 99%
Test J rating (% disease control) [2, 14]: 100%
Test F rating (% disease control) (Septoria nodorum; [15]): 98%
Test G rating (% disease control) (Septoria tritici; [16]): 100%
Test I rating (% disease control) [3, 17]: 99%

Cc1nn(C)c(Nc2cccc(F)c2F)c1-c1ccc(F)cc1F [compound 214]
Test B rating (% disease control) (Botrytis cinerea; [4]): 98%
Test H rating (% disease control) [1, 5]: 9%
Test C rating (% disease control) (Alternaria solani; [6]): 51%
Test J rating (% disease control) [2, 7]: 100%
Test F rating (% disease control) (Septoria nodorum; [8]): 0%
Test G rating (% disease control) (Septoria tritici; [9]): 100%
Test I rating (% disease control) [3, 10]: 99%

Cc1nn(C)c(Nc2ccc(F)cc2Cl)c1-c1ccccc1C(F)(F)F [compound 236]
Test B rating (% disease control) (Botrytis cinerea; [4]): 97%
Test H rating (% disease control) [1, 5]: 0%
Test C rating (% disease control) (Alternaria solani; [6]): 0%
Test J rating (% disease control) [2, 7]: 97%
Test F rating (% disease control) (Septoria nodorum; [8]): 0%
Test G rating (% disease control) (Septoria tritici; [9]): 96%
Test I rating (% disease control) [3, 10]: 68%

Cc1nn(C)c(Nc2cc(C#N)ccc2Cl)c1-c1ccc(F)cc1F [compound 291]
Test B rating (% disease control) (Botrytis cinerea; [4]): 99%
Test H rating (% disease control) [1, 5]: 0%
Test C rating (% disease control) (Alternaria solani; [6]): 0%
Test J rating (% disease control) [2, 7]: 43%
Test F rating (% disease control) (Septoria nodorum; [8]): 0%
Test G rating (% disease control) (Septoria tritici; [9]): 98%
Test I rating (% disease control) [3, 10]: 85%

Cc1nn(C)c(Nc2ccc(F)cc2F)c1-c1cccc(F)c1F [compound 202]
Test B rating (% disease control) (Botrytis cinerea; [4]): 99%
Test H rating (% disease control) [1, 5]: 0%
Test C rating (% disease control) (Alternaria solani; [6]): 0%
Test J rating (% disease control) [2, 7]: 99%
Test F rating (% disease control) (Septoria nodorum; [8]): 0%
Test G rating (% disease control) (Septoria tritici; [9]): 99%
Test I rating (% disease control) [3, 10]: 28%

Cc1nn(C)c(Nc2c(F)cc(Cl)cc2F)c1-c1ccc(F)cc1Br [Compound 360, 4-(2-bromo-4-fluorophenyl)-N-(4-chloro-2,6-difluorophenyl)-1,3-dimethyl-1H-pyrazol-5-amine]
pest or weed control at 200 µg/mL (Botrytis cinerea; Botrytis cinerea, in Solanum lycopersicum, 120 h, read-out: Test B disease control rating): 100%
pest or weed control at 200 µg/mL ([1]; 144 h, read-out: Test H disease control rating): 79%
pest or weed control at 200 µg/mL (Alternaria solani; Alternaria solani, in Solanum lycopersicum, 168 h, read-out: Test C disease control rating): 97%
pest or weed control at 200 µg/mL ([2]; Blumeria graminis, in Triticum aestivum, 192 h, read-out: Test J disease control rating): 100%
pest or weed control at 200 µg/mL (Septoria nodorum; Parastagonospora nodorum, in Triticum aestivum, 192 h, read-out: Test F disease control rating): 95%
pest or weed control at 200 µg/mL (Septoria tritici; Zymoseptoria tritici, in Triticum aestivum, 504 h, read-out: Test G disease control rating): 100%
pest or weed control at 200 µg/mL ([3]; 192 h, read-out: Test I disease control rating): 100%

COc1cc(F)c(Nc2c(-c3cccc(F)c3F)c(C)nn2C)c(F)c1 [compound 204]
Test B rating (% disease control), marked * (Botrytis cinerea; tomato Botrytis, rating marked with asterisk (*), meaning not given): 100* %
Test H rating (% disease control), marked * ([1]; wheat leaf rust, curative, rating marked with asterisk (*), meaning not given): 0* %
Test C rating (% disease control), marked * (Alternaria solani; tomato early blight, rating marked with asterisk (*), meaning not given): 77* %
Test J rating (% disease control), marked * ([2]; wheat powdery mildew, rating marked with asterisk (*), meaning not given): 99* %
Test F rating (% disease control), marked * (Septoria nodorum; Septoria glume blotch, rating marked with asterisk (*), meaning not given): 0* %
Test G rating (% disease control), marked * (Septoria tritici; wheat leaf blotch, rating marked with asterisk (*), meaning not given): 99* %
Test I rating (% disease control), marked * ([3]; wheat leaf rust, preventive, rating marked with asterisk (*), meaning not given): 86* %

Cc1nn(C)c(Nc2ccc(Cl)cc2Cl)c1-c1ccc(F)cc1F [compound 243]
Test B rating (% disease control) (Botrytis cinerea; [4]): 100%
Test H rating (% disease control) [1, 5]: 0%
Test C rating (% disease control) (Alternaria solani; [6]): 64%
Test J rating (% disease control) [2, 7]: 100%
Test F rating (% disease control) (Septoria nodorum; [8]): 0%
Test G rating (% disease control) (Septoria tritici; [9]): 100%
Test I rating (% disease control) [3, 10]: 97%

COc1ccc(-c2c(C)nn(C)c2Nc2ccc(F)cc2F)c(Cl)c1 [compound 160]
Test B rating (% disease control) (Botrytis cinerea; [4]): 98%
Test H rating (% disease control) [1, 5]: 8%
Test C rating (% disease control) (Alternaria solani; [6]): 99%
Test J rating (% disease control) [2, 7]: 100%
Test F rating (% disease control) (Septoria nodorum; [8]): 0%
Test G rating (% disease control) (Septoria tritici; [9]): 99%
Test I rating (% disease control) [3, 10]: 100%

Cc1nn(C)c(Nc2ccc(Cl)cc2)c1-c1ccc(F)cc1Cl [compound 19]
Test B rating (% disease control) (Botrytis cinerea; [11]): 100%
Test H rating (% disease control) [1, 12]: 0%
Test C rating (% disease control) (Alternaria solani; [13]): 85%
Test J rating (% disease control) [2, 14]: 98%
Test F rating (% disease control) (Septoria nodorum; [15]): 0%
Test G rating (% disease control) (Septoria tritici; [16]): 96%
Test I rating (% disease control) [3, 17]: 92%

COc1cc(F)c(-c2c(C)nn(C)c2Oc2cccc(C)c2)c(F)c1 [compound 220]
Test B rating (% disease control) (Botrytis cinerea; [4]): 98%
Test H rating (% disease control) [1, 5]: 40%
Test C rating (% disease control) (Alternaria solani; [6]): 97%
Test J rating (% disease control) [2, 7]: 100%
Test F rating (% disease control) (Septoria nodorum; [8]): 40%
Test G rating (% disease control) (Septoria tritici; [9]): 98%
Test I rating (% disease control) [3, 10]: 99%

Cc1nn(C)c(Nc2cccc(F)c2)c1-c1c(F)cc(C#N)cc1F [compound 136]
Test B rating (% disease control) (Botrytis cinerea; [11]): 99%
Test H rating (% disease control) [1, 12]: 0%
Test C rating (% disease control) (Alternaria solani; [13]): 71%
Test J rating (% disease control) [2, 14]: 100%
Test F rating (% disease control) (Septoria nodorum; [15]): 86%
Test G rating (% disease control) (Septoria tritici; [16]): 99%
Test I rating (% disease control) [3, 17]: 99%

Cc1nn(C)c(Nc2ncc(F)cc2F)c1-c1ccc(F)cc1Cl [compound 154]
Test B rating (% disease control) (Botrytis cinerea; [4]): 99%
Test H rating (% disease control) [1, 5]: 41%
Test C rating (% disease control) (Alternaria solani; [6]): 99%
Test J rating (% disease control) [2, 7]: 100%
Test F rating (% disease control) (Septoria nodorum; [8]): 97%
Test G rating (% disease control) (Septoria tritici; [9]): 100%
Test I rating (% disease control) [3, 10]: 100%

Cc1nn(C)c(Oc2c(F)cc(C#N)cc2F)c1-c1cccc(F)c1F [compound 274]
Test B rating (% disease control) (Botrytis cinerea; [4]): 8%
Test H rating (% disease control) [1, 5]: 8%
Test C rating (% disease control) (Alternaria solani; [6]): 0%
Test J rating (% disease control) [2, 7]: 69%
Test F rating (% disease control) (Septoria nodorum; [8]): 0%
Test G rating (% disease control) (Septoria tritici; [9]): 96%
Test I rating (% disease control) [3, 10]: 0%

Cc1nn(C)c(Oc2ccc(C#N)c(C#N)c2)c1-c1c(F)cc(F)cc1F [compound 169]
Test B rating (% disease control) (Botrytis cinerea; [4]): 24%
Test H rating (% disease control) [1, 5]: 0%
Test C rating (% disease control) (Alternaria solani; [6]): 0%
Test J rating (% disease control) [2, 7]: 0%
Test F rating (% disease control) (Septoria nodorum; [8]): 0%
Test G rating (% disease control) (Septoria tritici; [9]): 85%
Test I rating (% disease control) [3, 10]: 0%

COc1cc(F)c(Nc2c(-c3ccccc3F)c(C)nn2C)c(F)c1 [compound 183]
Test B rating (% disease control) (Botrytis cinerea; [4]): 97%
Test H rating (% disease control) [1, 5]: 27%
Test C rating (% disease control) (Alternaria solani; [6]): 100%
Test J rating (% disease control) [2, 7]: 99%
Test F rating (% disease control) (Septoria nodorum; [8]): 67%
Test G rating (% disease control) (Septoria tritici; [9]): 99%
Test I rating (% disease control) [3, 10]: 94%
